Residues, ends and D or L forms follow the SMILES beside them.

In one series the test system is mice or rats. As to conditions: high dose levels, intramuscularly; cited from earlier work.
Series [1] has as its system IL-2 induced edema. Kind of series: IL-2 induced vascular leak syndrome, organ wet to dry (W/D) weight ratios. It is filed as in vivo, rats. To be noted: for Lung wet to dry weight ratio, effect of agent on IL-2 edema: agent 1 uM co-treatment with 10^6 U/ml IL-2, p<0.05, FIG. 5; for Heart wet to dry weight ratio, effect of agent on IL-2 edema: agent 1 uM co-treatment with 10^6 U/mml IL-2, p<0.01, FIG. 4; for Kidney wet to dry ratio, effect of agent on IL-2 edema: agent 1 uM plus 10^6 U/ml IL-2, FIG. 2; for Liver wet to dry ratio, effect of agent with IL-2: agent 1 uM plus IL-2 co-treatment, FIG. 3; for Spleen wet to dry ratio, effect of agent with IL-2: agent plus 10^6 U/ml IL-2, FIG. 1. Here is the method: (§1) 1. Assay Models: Vascular leak syndrome is induced rapidly in adult, male rats (500 g) by a continuous infusion for 1 h of 10^6 units of IL-2 (n=36). Five hours later the animals are killed and edema is quantitated by measuring wet to dry (W/D) ratios for the lungs, kidneys, liver, heart, and spleen.
(§2) 2. Controls: Animals are pretreated with 0.5 ml saline for 30 min. prior to the IL-2 infusion (n=28).
(§3) 3. Experimental Animals: Each animal is pretreated with either Phallin A (antamanide) or Phallin B (phalloidin), 20 ug/0.5 ml saline as a single bolus 30 min. prior to the infusion of IL-2 (n=24). Each animal then receives at 30 min. intervals a booster injection of 20 ug of Phallin A or Phallin B for the duration (6 h) of the experiments.

Another series has as its system albino mice. As to conditions: intramuscularly; cited from earlier work.
Series [2] deals with IL-2 induced edema. As to the kind of experiment: IL-2 induced vascular leak syndrome, protein concentration of bronchoalveolar lavage fluid. It is filed as in vivo, rats. To be noted: agent 1 uM and 10^6 U/ml Interleukin-2, compared with 10^6 U/ml Interleukin-2 alone, FIG. 6. On the procedure:
as §1, §2, §3
4. Protein Analysis: Samples obtained by bronchoalveolar lavage are quantitated for protein concentration as another means of determining the relative loss of barrier integrity in the experimental animals compared to controls.

Series [3] concerns IL-2 induced edema. Kind of series: IL-2 induced vascular leak syndrome, organ wet to dry (W/D) weight ratios. It counts as in vivo, rats. To be noted: for Spleen wet to dry ratio (splenic edema) / Kidney wet to dry ratio (renal edema) / Liver wet to dry ratio (hepatic edema) / Heart wet to dry weight ratio (cardiac edema) / Lung wet to dry weight ratio (pulmonary edema): agent alone, 1 uM; for Spleen wet to dry ratio (splenic edema): FIG. 1; for Kidney wet to dry ratio (renal edema): FIG. 2; for Liver wet to dry ratio (hepatic edema): FIG. 3; for Heart wet to dry weight ratio (cardiac edema): FIG. 4; for Lung wet to dry weight ratio (pulmonary edema): FIG. 5.

The subject of the next series is phalloidin poisoning. To be noted: cited from earlier work.

With Phalloidin, the time to death entry with mice or rats is “death of mice or rats within one or two hours”. Besides, in the series on IL-2 induced edema [1], the “Lung wet to dry weight ratio, effect of agent on IL-2 edema” value (“Lung wet to dry weight ratio, effect” for short) is on record as “significantly reduced”; the “Heart wet to dry weight ratio, effect of agent on IL-2 edema” value (shortened to “Heart wet to dry weight ratio, effect”) is recorded as “significantly reduced”; the “Kidney wet to dry ratio, effect of agent on IL-2 edema” value (“Kidney wet to dry ratio, effect” for short) is recorded as “significantly (p<0.05) worsened”; the “Liver wet to dry ratio, effect of agent with IL-2” value (from here on “Liver wet to dry ratio, effect”) is listed as “produced significant (p<0.05) edema”. In the series on IL-2 induced edema [1], the “Spleen wet to dry ratio, effect of agent with IL-2” value (“Spleen wet to dry ratio, effect” for short) is “remained unmodified”. For the same compound, in the series with IL-2 induced edema [1] (listed as Phallin B), the “Lung wet to dry weight ratio, effect” value was “decreases IL-2 induced edema”; the “Heart wet to dry weight ratio, effect” value is on record as “decreases IL-2 induced edema”; the “Kidney wet to dry ratio, effect” value is listed as “apparently produces edema”; the “Liver wet to dry ratio, effect” value was “apparently produces edema”. For the same compound, the LD50 dose in the series on albino mice is listed as 3.3 micrograms per gram of body weight. Also, the “Protein concentration in bronchoalveolar lavage fluid” value with IL-2 induced edema [2] was “drastically reduced the accumulation and concentration of protein”. In the series on IL-2 induced edema [3], the “Spleen wet to dry ratio (splenic edema)” value is recorded as “did not produce any significant splenic edema”, the “Kidney wet to dry ratio (renal edema)” value is recorded as “did not produce any significant renal edema”, the “Liver wet to dry ratio (hepatic edema)” value is reported as “did not produce any significant hepatic edema” and the “Heart wet to dry weight ratio (cardiac edema)” value was “did not produce any significant cardiac edema”. The “Lung wet to dry weight ratio (pulmonary edema)” value in the series with IL-2 induced edema [3] is “did not produce any significant pulmonary edema”.

As to `CC(C)[C@@H]1NC(=O)[C@H](Cc2ccccc2)NC(=O)[C@H](Cc2ccccc2)NC(=O)[C@@H]2CCCN2C(=O)[C@@H]2CCCN2C(=O)[C@H](Cc2ccccc2)NC(=O)[C@H](Cc2ccccc2)NC(=O)[C@H](C)NC(=O)[C@@H]2CCCN2C(=O)[C@@H]2CCCN2C1=O` [antamanide] (cyclo(AFFPPFFVPP)), in the series with IL-2 induced edema [1], the “Lung wet to dry weight ratio, effect” value is given as “significantly reduced”; the “Heart wet to dry weight ratio, effect” value was “significantly reduced”; the “Kidney wet to dry ratio, effect” value is on record as “signnificantly improved (p<0.05)”; the “Liver wet to dry ratio, effect” value was “No significant change in wet/dry weight ratio”. The “Spleen wet to dry ratio, effect” value in the series on IL-2 induced edema [1] is reported as “remained unmodified”. In the series with IL-2 induced edema [1] (listed as Phallin A), the “Lung wet to dry weight ratio, effect” value is listed as “prevented IL-2 induced edema”; the “Heart wet to dry weight ratio, effect” value is reported as “prevented IL-2 induced edema”; the “Kidney wet to dry ratio, effect” value is “prevented IL-2 induced edema”; the “Liver wet to dry ratio, effect” value is recorded as “appear unaffected”. Besides, the “Protein concentration in bronchoalveolar lavage fluid” value with IL-2 induced edema [2] is “drastically reduced the accumulation and concentration of protein”. In the series on IL-2 induced edema [3], the “Spleen wet to dry ratio (splenic edema)” value is “did not produce any significant splenic edema”, the “Kidney wet to dry ratio (renal edema)” value is “did not produce any significant renal edema”, the “Liver wet to dry ratio (hepatic edema)” value is on record as “did not produce any significant hepatic edema” and the “Heart wet to dry weight ratio (cardiac edema)” value was “did not produce any significant cardiac edema”. The “Lung wet to dry weight ratio (pulmonary edema)” value in the series on IL-2 induced edema [3] was “did not produce any significant pulmonary edema”. In addition, in the series with IL-2 induced edema [3] (agent plus 10^6 U/ml IL-2, FIG. 1, listed as Phallin A), the “Spleen wet to dry ratio, effect” value is reported as “appear unaffected”. Also, the “toxicity of the substance itself” value with phalloidin poisoning (in vivo) was “completely non-toxic of itself”. Moreover, the “effect on toxic effects of fatal doses of phalloidin” value with phalloidin poisoning (therapeutic doses) is listed as “capable of actually annulling the toxic effects of fatal doses of phalloidin”.

The record behind these values is patent US5278143A, “Prophylactic and therapeutic methods for treating interleukin-mediated edemas” (Trustees of Boston University, priority 1991, dated 1994).
